Data taken from patent US10542753B2, “Compositions for improving budbreak and flowering” (Zelam Limited, priority 2015, dated 2020).

Tests used:
[1] = Pahokee muck soil under varying agricultural practices; cited from earlier work
[2] = cited from earlier work
Granny Smith Apples = experiment: Trial 8: sprayed trees, budbreak, flowering and fruit set on fruiting spurs; assay type: in vivo
Description: Trial 8: Use on Granny Smith Apples was evaluated in New Plymouth, New Zealand following a poor winter chill in 2013. Treatments were applied on 9 Aug. 2013 at 200 L/Ha using a manual backpack sprayer in a replicated trial (4 replications of two tree plots).

Hayward kiwifruit vines = experiment: Trial 2: cane painting, salicylic acid dose-response, budbreak; assay type: in vivo, Actinidia deliciosa
Description: A cane painting experiment was performed in 2012 in a Hayward kiwifruit orchard in Taranaki, New Zealand. Canes of 1.2 m average length from 33 vines were tagged and either left untreated or painted with one of HC, Examples 5-8 and Comparative Examples 2 and 3 on 9-Aug, 50 DBNB (28-Sep). Midpoints and spread were calculated for budbreak (Table 3) but there were insufficient data to perform the calculations for flowering. […] FIG. 3 illustrates the progression of budbreak in Trial 2. FIG. 4 illustrates the progress of flowering in Trial 2.

Gold3 kiwifruit = experiment: Trial 4: cane painting, budbreak and flowering; assay type: in vivo, Actinidia chinensis Planch. var. chinensis 'Zesy002'; parameters: Spread of BB / Advance in Midpoint / Reduction in Spread: unit not given here; details: for KFFS: king flowers per floral shoot; for KFWB: king flowers per winter bud; for Advance in Midpoint / Reduction in Spread: vs untreated
Description: This cane painting experiment was performed in a Bay of Plenty orchard in 2013 following a winter with poor chill in the key months of May and June. Low-medium vigour canes typical of the orchard were painted with either HC or Example 9 on 13-Aug and 20-Aug, 34 and 27 days before natural budbreak which occurred on 16-Sep. […] FIG. 5 illustrates the progression of budbreak and FIG. 6 illustrates the progress of flowering in Trial 4.

Gold3 [3] = experiment: Trial 6: sprayed trial after good winter chill (Hawkes Bay); assay type: in vivo, Actinidia chinensis Planch. var. chinensis 'Zesy002'
Description: (§1) These 2014 sprayed trials were performed in the Bay of Plenty (Trial 5, five replicates, each a bay comprising two vines with ten assessment canes per rep, five on each side of the bay) and Hawkes Bay, NZ (Trial 6, four replicates, each a bay comprising four vines with twenty assessment canes per rep, five from each vine). HC (700 litres/Ha) and Examples 9 and 10 (800 litres/Ha) were sprayed on 16-Aug (37 DBNB, Trial 5) and 11-Aug (30 DBNB, Trial 6). FIG. 7 illustrates the progression of budbreak in Trial 5 and FIG. 8 illustrates the progression of budbreak in Trial 6.
(§2) Under current management practices Gold3 growers require at least about 1.8 single flowers per winter bud (SFWB) to achieve the recommended packout of 17,000 trays/Ha.

Hayward kiwifruit = experiment: Trial 1: cane painting, budbreak and flowering; assay type: in vivo, Actinidia deliciosa; details: for Spread of BB: spread = 4x standard deviation; for Advance in Midpoint / Reduction in Spread: vs untreated
Description: A cane painting experiment was performed in a Hayward kiwifruit orchard in the Bay of Plenty New Zealand in 2010 following a winter with average winter chill. Low-medium vigour canes of 1.6 m average length from 36 vines were tagged and either left untreated or painted with one of HC, Examples 1-4 and Comparative Example 1. The date of painting (6-Aug) was 56 days before natural budbreak (DBNB). Budbreak (BBCH stage 9) and flowering (BBCH stage 60) were determined based on the photographs published by Salinero et al., 2009, “Phenological growth stages of kiwifruit (Actinidia deliciosa ‘Hayward’)”, Scientia Horticulturae 121, 27-31, which is hereby incorporated by reference in its entirety. Graphed and tabulated data represent averages of the 36 replicates and are normalised based on the number of winter buds on each cane.
FIG. 1 illustrates the progression of budbreak in Trial 1. FIG. 2 illustrates the progression of flowering in Trial 1. The progress curves depicted in FIGS. 1 and 2 were fitted to a cumulative normal curve to calculate the midpoints of budbreak and flowering (the dates corresponding to a 50% response) and spread of response time (defined as 4× standard deviation) as summarised in Tables 1 and 2.

Psa = experiment: Trial 3: whole-vine spray in Psa-infected orchard, Psa leaf spotting; assay type: in vivo, Hayward kiwifruit vines; details: for % Incidence: Psa leaf spotting
Source text: A trial in which whole Hayward kiwifruit vines were sprayed was established in the Bay of Plenty in 2013. There were twelve replicates and two sets of untreated vines. HC (700 litres/Ha) and the composition of Example 8 (800 litres/Ha) were applied on three dates using a boom sprayer designed to produce spray deposition typical of an orchard air blast sprayer. Of particular interest in this trial was the prevalence of Psa leaf spotting that became evident in late spring, particularly in the early HC-sprayed vines. Vines were assessed for Psa leaf spotting by rating 40 randomly selected leaves (10 on each side of the two leaders that made up each vine) on a 1-5 scale (Table 4).

Gold3 [4] = experiment: Trial 5: sprayed trial after poor winter chill (Bay of Plenty); assay type: in vivo, Actinidia chinensis Planch. var. chinensis 'Zesy002'
Description: as §1, §2

[5] = Trial 5, Bay of Plenty, poor winter chill

In the case of `O=C(O)c1ccccc1O` [Salicylic acid, salicylic acid], the Biodegradation [1] is listed as “rapid”, the Solubility in ethanol ([2]; 21° C.) is listed as 34.87 % w/w and the Solubility in propanol ([2]; 21° C.) is listed as 27.36 % w/w. The Solubility in benzene ([2]; 25° C.) was 0.775 % w/w.

For `N#CN` [HC, hydrogen cyanamide], the “% Budbreak 28 DAA” value (Granny Smith Apples; 28 DAA) was 14%, the “% Budbreak 39 DAA” value (Granny Smith Apples; 39 DAA) was 39% and the “% Budbreak 47 DAA” value (Granny Smith Apples; 47 DAA) was 34%. For the same molecule, the “% Flowering 54 DAA” value (Granny Smith Apples; 54 DAA) was 66%, the “% Fruit set 74 DAA” value (Granny Smith Apples; 74 DAA) was 16% and the “budbreak response (in words)” value (Hayward kiwifruit vines; Trial 2, FIG. 3, vs untreated) was “improved considerably”. For the same molecule, the “Spread of BB” value (Hayward kiwifruit vines; budbreak) was 19, the “Advance in Midpoint” value (Hayward kiwifruit vines; budbreak, vs untreated) was 12 and the “Reduction in Spread” value (Hayward kiwifruit vines; budbreak, vs untreated) was 7. For the same molecule, the “frequency of lateral flowers (doubles and triples) (in words)” value (Gold3 kiwifruit; Trial 4) was “increased the frequency of lateral flowers”, the “king flowers per winter bud (KFWB) (in words)” value (Gold3 kiwifruit; Trial 4, vs untreated) was “large increases” and the KFFS (Gold3 kiwifruit; painted 27 DBNB (20-Aug)) was 2.35. The KFFS (Gold3 kiwifruit; painted 34 DBNB (13-Aug)) was 2.90, the KFWB (Gold3 kiwifruit; painted 27 DBNB (20-Aug)) was 1.19 and the KFWB (Gold3 kiwifruit; painted 34 DBNB (13-Aug)) was 1.48. For the same molecule, the “% Budbreak” value (Gold3 kiwifruit; painted 27 DBNB (20-Aug)) was 72.1%, the “% Deformed” value (Gold3 kiwifruit; painted 27 DBNB (20-Aug)) was 0.2% and the “% Laterals” value (Gold3 kiwifruit; painted 27 DBNB (20-Aug)) was 1.8%. The Floral shoots (Gold3 kiwifruit; painted 27 DBNB (20-Aug)) was 71%, the “Spread of BB” value (Gold3 kiwifruit; painted 27 DBNB (20-Aug)) was 24 and the “Advance in Midpoint” value (Gold3 kiwifruit; painted 27 DBNB (20-Aug)) was 15. The “Reduction in Spread” value (Gold3 kiwifruit; painted 27 DBNB (20-Aug)) was 17, the “% Budbreak” value (Gold3 kiwifruit; painted 34 DBNB (13-Aug)) was 64.5% and the “% Deformed” value (Gold3 kiwifruit; painted 34 DBNB (13-Aug)) was 1.7%. For the same molecule, the “% Laterals” value (Gold3 kiwifruit; painted 34 DBNB (13-Aug)) was 9.9%, the Floral shoots (Gold3 kiwifruit; painted 34 DBNB (13-Aug)) was 83% and the “Spread of BB” value (Gold3 kiwifruit; painted 34 DBNB (13-Aug)) was 12. For the same molecule, the “Advance in Midpoint” value (Gold3 kiwifruit; painted 34 DBNB (13-Aug)) was 19, the “Reduction in Spread” value (Gold3 kiwifruit; painted 34 DBNB (13-Aug)) was 30 and the “frequency of laterals (in words)” value (Gold3 [3]; Trial 6, Hawkes Bay, good winter chill) was “further increased”. The “% Laterals” value (Gold3 [3]; in vivo) was 31.2%, the KFWB (Gold3 [3]; king flowers per winter bud) was 2.61 and the SFWB (Gold3 [3]; single flowers per winter bud) was 1.8. For the same molecule, the “% Budbreak” value (Gold3 [3]; sprayed 11-Aug (30 DBNB)) was 55.9%, the “Spread of BB” value (Hayward kiwifruit; Table 2, flowering) was 7 and the “Advance in Midpoint” value (Hayward kiwifruit; Table 2, flowering) was 6. The “Reduction in Spread” value (Hayward kiwifruit; Table 2, flowering) was 9, the “Spread of BB” value (Hayward kiwifruit; budbreak) was 17 and the “Advance in Midpoint” value (Hayward kiwifruit; budbreak) was 16. The “Reduction in Spread” value (Hayward kiwifruit; budbreak) was 32, the “change in Psa leaf spotting (ANOVA, in words)” value (Psa; HC after the first two applications, Example 8 at all application dates) was “significant increase” and the “% Incidence” value (Psa; applied 15-Aug (46 DBNB)) was 51.5 a %. The “% Incidence” value (Psa; applied 24-Aug (37 DBNB)) was 21.7 b %, the “% Incidence” value (Psa; applied 30-Aug (31 DBNB)) was 18.3 bc % and the Leaf spotting score (Psa; applied 15-Aug (46 DBNB), 40 leaves rated on 1-5 scale) was 1.15 a. For the same molecule, the Leaf spotting score (Psa; applied 24-Aug (37 DBNB)) was 0.42 b, the Leaf spotting score (Psa; applied 30-Aug (31 DBNB)) was 0.31 bc and the “flower numbers (in words)” value (Gold3 [4]; [5]) was “excessive flower numbers”. For the same molecule, the “frequency of double and triple flowers / laterals (in words)” value (Gold3 [4]; [5]) was “nearly doubled”, the “% Double flowers” value (Gold3 [4]; in vivo) was 14.4% and the “% Laterals” value (Gold3 [4]; in vivo) was 18.7%. The “% Triple flowers” value (Gold3 [4]; in vivo) was 4.3%, the KFWB (Gold3 [4]; king flowers per winter bud) was 3.1 and the SFWB (Gold3 [4]; single flowers per winter bud) was 2.5. The “% Budbreak” value (Gold3 [4]; sprayed 16-Aug (37 DBNB)) was 56.9%.
